Reference: patent US20110293727A1, “CHIMERIC THERAPEUTICS, COMPOSITIONS, AND METHODS FOR USING SAME” (priority 2008, published 2011)

System: inhibitory dsRNA
Experiment: K9 protein-RNA complex by electrophoresis of labeled inhibitory dsRNA and K9 protein
Type: binding
Settings: 4 M Urea, 10 mM Hepes, pH 8.15; 1.5% agarose gel; FIG. 5
Method: Inhibitory dsRNA 3′-labeled with Dy547 is purchased from Dharmacon (Lafayette, Colo.). Labeled and unlabeled inhibitory dsRNA solutions are diluted to 4 μM in 4 M Urea, 10 mM Hepes, pH 8.15. […] Labeled and unlabeled protein solutions are diluted to 3 μM in 4M Urea.
Labeled and unlabeled RNA and protein are used in separate binding reactions. Samples are run on a 1.5% TAE-agarose gel for 35 minutes at 110 volts.
A typhoon phosphoimager(GE) is used to visualize the cy5-only, DY547-only and cy5/DY547 labeled RNA protein complexes. Filters are employed to separately detect Dy547 (FIG. 5A) and cy5 (FIG. 5B) fluorescent labels. To image all fluorescence on the gel, cy5-filtered and dy547-filtered images are overlayed (FIG. 5C).

In the case of “K9: modified HBV core protein (contains E77C), 9-lysine C-terminal tail, His tag, SEQ ID NO: 10 [Mutant K9]”, the “complex formation of K9 protein with inhibitory dsRNA (shifted band)” value is reported as “form a complex in solution”.
